For 15 compounds, TGI and GI50 results are on record in PubChem BioAssay (NCI).

Among the test systems are HOP-62 NSCLC; K-562 leukemia; CCRF-CEM leukemia; TK-10 renal; NCI-H460 lung; UACC-62 melanoma; SF-539 CNS; NCI-H522 lung; BT-549 breast; NCI/ADR-RES ovarian.
What all share (test): DTP human tumour cell line panel, 48 h

Each structure is given as a SMILES string.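 Values below derive from 48-hour exposures of cells grown in 96-well plates, with endpoints linearly interpolated between the two concentrations bracketing the appropriate inhibition level. The concentration for 50% growth inhibition is given as GI50. At the TGI there is no net growth.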

Turning to `COc1nc(NC2OC(COC(C)=O)C(OC(C)=O)C(OC(C)=O)C2OC(C)=O)c2c(OC(C)=O)cc(=O)oc2n1` (configuration not stated), the total growth inhibition concentration (TGI) in the experiment with HOP-62 NSCLC is greater than 100 µM; in the experiment with K-562 leukemia, greater than 100 µM; in the experiment on CCRF-CEM leukemia it was greater than 100 µM; in the experiment on TK-10 renal it was greater than 100 µM; with NCI-H460 lung, 34.1 µM; in the experiment with UACC-62 melanoma, greater than 100 µM. The TGI in the experiment with SF-539 CNS was greater than 100 µM.

On to `CC(=O)O/N=C(/C)c1ccccc1O`, for which the TGI with HOP-62 NSCLC, in the experiment with K-562 leukemia, in the experiment with CCRF-CEM leukemia, in the experiment on TK-10 renal, in the experiment on NCI-H460 lung and in the experiment with UACC-62 melanoma was greater than 100 µM each time. The TGI with NCI-H522 lung and in the experiment with SF-539 CNS was greater than 100 µM each time.

As to `CC(C)(C)c1cc2c(O)c3cccc4c(=O)c5cccc6c5-c(c34)c2c(c1)c6=O`, the TGI in the experiment on HOP-62 NSCLC, with K-562 leukemia, in the experiment with CCRF-CEM leukemia, with TK-10 renal, in the experiment with NCI-H460 lung and in the experiment with UACC-62 melanoma was greater than 100 µM throughout. For the same compound, the TGI with NCI-H522 lung was greater than 100 µM.

For `C=C(C)CCOC(c1ccccc1)(c1ccccc1)c1ccccc1`, the TGI in the experiment with HOP-62 NSCLC, in the experiment on K-562 leukemia, in the experiment with CCRF-CEM leukemia, in the experiment with TK-10 renal, in the experiment on NCI-H460 lung and with UACC-62 melanoma was greater than 100 µM in each case. In addition, the values for the TGI with NCI-H522 lung and in the experiment on SF-539 CNS were 76.3 µM and greater than 100 µM, respectively.

As to `CCCCN(CCCC)C(=O)C(=O)C(C(=O)c1ccc(OC)cc1)c1ccc(OC)cc1` (configuration not stated), the TGI in the experiment on HOP-62 NSCLC, with K-562 leukemia, in the experiment on CCRF-CEM leukemia, in the experiment with TK-10 renal, in the experiment on NCI-H460 lung and in the experiment with UACC-62 melanoma was greater than 100 µM throughout. In the experiment on SF-539 CNS, this compound had a TGI greater than 100 µM.

`Cc1ccc(/C=C/C(=O)CCN(C)C)cc1`: the TGI is greater than 100 µM in the experiment with HOP-62 NSCLC; greater than 100 µM in the experiment with K-562 leukemia; 72.4 µM in the experiment with CCRF-CEM leukemia; 30.2 µM in the experiment on TK-10 renal; 65.6 µM in the experiment with NCI-H460 lung; 28.2 µM with UACC-62 melanoma. In the experiment on SF-539 CNS, this compound returned a TGI of 31.3 µM.

In the case of `O=C(Nc1ccccc1-c1nn(C(=S)Nc2ccccc2)c(=S)n(C(=S)Nc2ccccc2)c1=O)C(F)(F)F`, the TGI in the experiment on HOP-62 NSCLC is greater than 100 µM; in the experiment with K-562 leukemia, greater than 95.6 µM; in the experiment with CCRF-CEM leukemia, 62.1 µM; in the experiment on TK-10 renal, greater than 96.3 µM; with NCI-H460 lung it was greater than 100 µM; in the experiment on UACC-62 melanoma it was 44.4 µM. Moreover, the TGI in the experiment with NCI-H522 lung was 58.5 µM; in the experiment with SF-539 CNS it was greater than 100 µM.

`COc1ccc(C)cc1-c1cc(Sc2ccccc2)c(-c2cc(C)ccc2OC)o1`: the TGI in the experiment on HOP-62 NSCLC, in the experiment with K-562 leukemia, with CCRF-CEM leukemia, with TK-10 renal, in the experiment with NCI-H460 lung and in the experiment with UACC-62 melanoma was greater than 31.6 µM each time. The TGI in the experiment on NCI-H522 lung and in the experiment on SF-539 CNS was greater than 31.6 µM throughout.

Turning to `C/C(CCn1[nH]c(=O)ccc1=O)=N\NC(=O)C(=O)NN`, the TGI in the experiment with HOP-62 NSCLC, with K-562 leukemia, with CCRF-CEM leukemia, with TK-10 renal, in the experiment on NCI-H460 lung and in the experiment with UACC-62 melanoma was greater than 100 µM each time. Further, the TGI in the experiment with NCI-H522 lung and in the experiment with SF-539 CNS was greater than 100 µM in each case.

Consider `O=S(=O)(N/N=C/c1cccc(/C=N/NS(=O)(=O)c2ccccc2)c1)c1ccccc1`, for which the TGI with HOP-62 NSCLC, with K-562 leukemia, in the experiment on CCRF-CEM leukemia, in the experiment with TK-10 renal, in the experiment on NCI-H460 lung and with UACC-62 melanoma was greater than 100 µM in each case. Besides, in the experiment on SF-539 CNS, the TGI was greater than 100 µM.

Turning to `CN(C)CCn1c2c3ccccc3ccc2c2oc(=O)c3ccccc3c21`, the TGI in the experiment with HOP-62 NSCLC was 28.3 µM; with K-562 leukemia, greater than 100 µM; with CCRF-CEM leukemia, greater than 100 µM; in the experiment on TK-10 renal, 25.1 µM; in the experiment on NCI-H460 lung it was 13.4 µM; in the experiment on UACC-62 melanoma, 71 µM. Moreover, the values for the TGI with NCI-H522 lung and in the experiment with SF-539 CNS were 27.6 µM and 7.1 µM, respectively.

As for `c1ccc(NCn2cnc3ccccc32)cc1`, the TGI in the experiment on K-562 leukemia, in the experiment on CCRF-CEM leukemia, in the experiment with TK-10 renal, with NCI-H460 lung, in the experiment on UACC-62 melanoma and in the experiment with NCI-H522 lung was greater than 100 µM throughout. For the same compound, the TGI in the experiment on SF-539 CNS is greater than 100 µM.

In the case of `NC(=O)C(=Cn1c(=S)[nH]c2ccc([N+](=O)[O-])cc21)C(N)=O`, the TGI in the experiment with BT-549 breast, with HOP-62 NSCLC, in the experiment with TK-10 renal, with NCI-H460 lung, in the experiment on UACC-62 melanoma and in the experiment with NCI/ADR-RES ovarian was greater than 100 µM each time. The TGI in the experiment on SF-539 CNS was greater than 100 µM.

As for `COc1ccc(-c2cn[nH]c2-c2cc(OC)c(OC)c(OC)c2)cc1`, the GI50 with HOP-62 NSCLC is 0.0352 µM; in the experiment on K-562 leukemia it was less than 0.0109 µM; with CCRF-CEM leukemia it was 0.0353 µM; with NCI-H460 lung, 0.0351 µM; in the experiment with UACC-62 melanoma, 0.0339 µM; in the experiment on NCI/ADR-RES ovarian, 0.0305 µM. The GI50 in the experiment on NCI-H522 lung is 0.0101 µM; in the experiment with SF-539 CNS, 0.0218 µM. Further, the TGI was 33.7 µM in the experiment on HOP-62 NSCLC; 26.7 µM in the experiment with K-562 leukemia; greater than 42.6 µM in the experiment on CCRF-CEM leukemia; 10.5 µM in the experiment with NCI-H460 lung; 19.5 µM in the experiment on UACC-62 melanoma; 40.2 µM in the experiment with NCI/ADR-RES ovarian. Moreover, the TGI in the experiment with NCI-H522 lung came to 0.0385 µM; in the experiment with SF-539 CNS, 0.0566 µM.

Take `CC1(C)OC1COc1c2occc2cc2ccc(=O)oc12` (configuration not stated): the TGI with BT-549 breast, in the experiment on HOP-62 NSCLC, in the experiment on K-562 leukemia, with CCRF-CEM leukemia, in the experiment on NCI-H460 lung and with UACC-62 melanoma was greater than 100 µM in each case. In addition, the TGI with NCI/ADR-RES ovarian, in the experiment with NCI-H522 lung and with SF-539 CNS was greater than 100 µM throughout.

By TGI is commonly meant the concentration at which net growth stops. High values mean lower sensitivity of the cells, low ones greater sensitivity of the cells. As usually defined, the GI50 is the concentration at which growth is held to half of that of the control.
